According to ChEMBL document CHEMBL1152855, “Regioselective synthesis of dispiro[1H-indene-2,3'-pyrrolidine-2',3''-[3H]indole]-1,2''(1''H)-diones of potential anti-tumor properties” (2009):

Tests used:
Format in all cases: functional
786-0 = assay: Growth inhibition of human 786-0 cells at 10 uM after 48 hrs by sulforhodamine B assay; details: 786-0, 48 h, values are per cent of control
MOLT-4 = assay: Growth inhibition of human MOLT4 cells at 10 uM after 48 hrs by sulforhodamine B assay; details: MOLT-4, 48 h, values are per cent of control
MCF7 = assay: Growth inhibition of human MCF7 cells at 10 uM after 48 hrs by sulforhodamine B assay; details: MCF7, 48 h, values are per cent of control
EKVX = assay: Growth inhibition of human EKVX cells at 10 uM after 48 hrs by sulforhodamine B assay; details: values are per cent of control
LOX IMVI = assay: Growth inhibition of human LOXIMVI cells at 10 uM after 48 hrs by sulforhodamine B assay; details: values are per cent of control
CCRF-CEM = assay: Growth inhibition of human CCRF-CEM cells at 10 uM after 48 hrs by sulforhodamine B assay; details: values are per cent of control
UO-31 = assay: Growth inhibition of human UO31 cells at 10 uM after 48 hrs by sulforhodamine B assay; details: UO-31, 48 h, values are per cent of control
Rattus norvegicus [1] = assay: Antiinflammatory activity against carrageenan-induced paw edema in Wister albino rat assessed as inhibition of edema at 50 mg/kg, ip administered 1 hr prior to carrageenan challenge measured after 2 hrs relative to control; details: route intraperitoneal
SK-OV-3 = assay: Growth inhibition of human SKOV3 cells at 10 uM after 48 hrs by sulforhodamine B assay; details: SK-OV-3, 48 h, values are per cent of control
PC-3 = assay: Growth inhibition of human PC3 cells at 10 uM after 48 hrs by sulforhodamine B assay; details: PC-3, 48 h, values are per cent of control
SK-MEL-5 = assay: Growth inhibition of human SK-MEL-5 cells at 10 uM after 48 hrs by sulforhodamine B assay; details: SK-MEL-5, 48 h, values are per cent of control
M14 = assay: Growth inhibition of human M14 cells at 10 uM after 48 hrs by sulforhodamine B assay; details: M14, 48 h, values are per cent of control
HOP-92 = assay: Growth inhibition of human HOP92 cells at 10 uM after 48 hrs by sulforhodamine B assay; details: HOP-92, 48 h, read-out: GI
K562 = assay: Growth inhibition of human K562 cells at 10 uM after 48 hrs by sulforhodamine B assay; details: K562, 48 h, values are per cent of control
Rattus norvegicus [2] = assay: Antiinflammatory activity against carrageenan-induced paw edema in Wister albino rat assessed as inhibition of edema at 50 mg/kg, ip administered 1 hr prior to carrageenan challenge measured after 3 hrs relative to control; details: route intraperitoneal
UACC-257 = assay: Growth inhibition of human UACC257 cells at 10 uM after 48 hrs by sulforhodamine B assay; details: UACC-257, 48 h, values are per cent of control
NCI/ADR-RES = assay: Growth inhibition of human NCI/ADR-RES cells at 10 uM after 48 hrs by sulforhodamine B assay; details: values are per cent of control
T47D = assay: Growth inhibition of human T47D cells at 10 uM after 48 hrs by sulforhodamine B assay; details: values are per cent of control
DU-145 = assay: Growth inhibition of human DU145 cells at 10 uM after 48 hrs by sulforhodamine B assay; details: DU-145, 48 h, values are per cent of control
U-251 = assay: Growth inhibition of human U251 cells at 10 uM after 48 hrs by sulforhodamine B assay; details: U-251, 48 h, values are per cent of control
HCT-15 = assay: Growth inhibition of human HCT15 cells at 10 uM after 48 hrs by sulforhodamine B assay; details: HCT-15, 48 h, values are per cent of control
MDA-MB-231 = assay: Growth inhibition of human MDA-MB-231 cells at 10 uM after 48 hrs by sulforhodamine B assay; details: MDA-MB-231, 48 h, values are per cent of control
NCI-H460 = assay: Growth inhibition of human NCI-H460 cells at 10 uM after 48 hrs by sulforhodamine B assay; details: NCI-H460, 48 h, values are per cent of control
CAKI-1 = assay: Growth inhibition of human Caki1 cells at 10 uM after 48 hrs by sulforhodamine B assay; details: CAKI-1, 48 h, values are per cent of control
SK-MEL-2 = assay: Growth inhibition of human SK-MEL-2 cells at 10 uM after 48 hrs by sulforhodamine B assay; details: SK-MEL-2, 48 h, read-out: GI
HOP-62 = assay: Growth inhibition of human HOP62 cells at 10 uM after 48 hrs by sulforhodamine B assay; details: HOP-62, 48 h, values are per cent of control
SF-539 = assay: Growth inhibition of human SF539 cells at 10 uM after 48 hrs by sulforhodamine B assay; details: SF-539, 48 h, values are per cent of control
OVCAR-4 = assay: Growth inhibition of human OVCAR4 cells at 10 uM after 48 hrs by sulforhodamine B assay; details: OVCAR-4, 48 h, values are per cent of control
UACC-62 = assay: Growth inhibition of human UACC62 cells at 10 uM after 48 hrs by sulforhodamine B assay; details: UACC-62, 48 h, values are per cent of control
NCI-H23 = assay: Growth inhibition of human NCI-H23 cells at 10 uM after 48 hrs by sulforhodamine B assay; details: NCI-H23, 48 h, values are per cent of control
NCI-H522 = assay: Growth inhibition of human NCI-H522 cells at 10 uM after 48 hrs by sulforhodamine B assay; details: NCI-H522, 48 h, values are per cent of control
SF-268 = assay: Growth inhibition of human SF268 cells at 10 uM after 48 hrs by sulforhodamine B assay; details: SF-268, 48 h, values are per cent of control
HT-29 = assay: Growth inhibition of human HT-29 cells at 10 uM after 48 hrs by sulforhodamine B assay; details: HT-29, 48 h, values are per cent of control
NCI-H226 = assay: Growth inhibition of human NCI-H226 cells at 10 uM after 48 hrs by sulforhodamine B assay; details: NCI-H226, 48 h, values are per cent of control
NCI-H322M = assay: Growth inhibition of human NCI-H322M cells at 10 uM after 48 hrs by sulforhodamine B assay; details: values are per cent of control
SN12C = assay: Growth inhibition of human SN12C cells at 10 uM after 48 hrs by sulforhodamine B assay; details: values are per cent of control
SR = assay: Growth inhibition of human SR cells at 10 uM after 48 hrs by sulforhodamine B assay; details: values are per cent of control
OVCAR-5 = assay: Growth inhibition of human OVCAR5 cells at 10 uM after 48 hrs by sulforhodamine B assay; details: OVCAR-5, 48 h, values are per cent of control
SK-MEL-28 = assay: Growth inhibition of human SK-MEL-28 cells at 10 uM after 48 hrs by sulforhodamine B assay; details: SK-MEL-28, 48 h, values are per cent of control

SMILES | growth, % of control at 10 µM (786-0) [%] | growth, % of control at 10 µM (MOLT-4) [%] | growth, % of control at 10 µM (MCF7) [%] | growth, % of control at 10 µM (EKVX) [%] | growth, % of control at 10 µM (LOX IMVI) [%] | growth, % of control at 10 µM (CCRF-CEM) [%] | growth, % of control at 10 µM (UO-31) [%] | inhibition in vivo at 50 mg/kg (Rattus norvegicus [1]) [%] | growth, % of control at 10 µM (SK-OV-3) [%] | growth, % of control at 10 µM (PC-3) [%] | growth, % of control at 10 µM (SK-MEL-5) [%] | growth, % of control at 10 µM (M14) [%] | inhibition of growth at 10 µM (HOP-92) [%] | growth, % of control at 10 µM (K562) [%] | inhibition in vivo at 50 mg/kg (Rattus norvegicus [2]) [%] | growth, % of control at 10 µM (UACC-257) [%] | growth, % of control at 10 µM (NCI/ADR-RES) [%] | growth, % of control at 10 µM (T47D) [%] | growth, % of control at 10 µM (DU-145) [%] | growth, % of control at 10 µM (U-251) [%] | further results
[3H]N1C(=O)[C@@]2(c3ccccc31)N(C)C[C@@H](c1ccc(Cl)cc1)[C@@]21Cc2ccccc2C1=O | 88.9 | 57 | 109 | 52.5 | 65.2 | 74.7 | 62.7 | 28.4 | 91 | 36.5 | 112 | 82.9 | 50.2 | 58.5 | 18.9 | 34.5 | 64 | 81.8 | 103 | 87.7 | growth, % of control at 10 µM (HCT-15): 82.5%; growth, % of control at 10 µM (MDA-MB-231): 75.1%; growth, % of control at 10 µM (NCI-H460): 94.7%; growth, % of control at 10 µM (CAKI-1): 80%; inhibition of growth at 10 µM (SK-MEL-2): -6.14%; growth, % of control at 10 µM (HOP-62): 87.5%; growth, % of control at 10 µM (SF-539): 107%; growth, % of control at 10 µM (OVCAR-4): 74.5%; growth, % of control at 10 µM (UACC-62): 45.8%; growth, % of control at 10 µM (NCI-H23): 75%; growth, % of control at 10 µM (NCI-H522): 73.9%; growth, % of control at 10 µM (SF-268): 90%; growth, % of control at 10 µM (HT-29): 73.8%; growth, % of control at 10 µM (NCI-H226): 73.7%; growth, % of control at 10 µM (NCI-H322M): 104%; growth, % of control at 10 µM (SN12C): 79.5%; growth, % of control at 10 µM (SR): 167%; growth, % of control at 10 µM (OVCAR-5): 93.2%; growth, % of control at 10 µM (SK-MEL-28): 112%
[3H]C([3H])([3H])N1C(=O)[C@@]2(c3ccccc31)N(C)C[C@@H](c1ccc(Cl)cc1)[C@@]21Cc2ccccc2C1=O | 86.2 | 87.5 | 91.8 | 72.6 | 72.2 | 108 | 66.1 | 36.3 | 86.6 | 38.3 | 87 | 76.6 | 25.1 | 39.5 | 9.4 | 42.6 | 79.4 | 75.8 | 91.1 | 93.1 | growth, % of control at 10 µM (HCT-15): 68.3%; growth, % of control at 10 µM (MDA-MB-231): 79.3%; growth, % of control at 10 µM (NCI-H460): 67.1%; growth, % of control at 10 µM (CAKI-1): 71.8%; inhibition of growth at 10 µM (SK-MEL-2): -11.1%; growth, % of control at 10 µM (HOP-62): 88.1%; growth, % of control at 10 µM (SF-539): 90.5%; growth, % of control at 10 µM (OVCAR-4): 72.5%; growth, % of control at 10 µM (UACC-62): 48.4%; growth, % of control at 10 µM (NCI-H23): 58%; growth, % of control at 10 µM (NCI-H522): 77.3%; growth, % of control at 10 µM (SF-268): 81.1%; growth, % of control at 10 µM (HT-29): 46.1%; growth, % of control at 10 µM (NCI-H226): 63.2%; growth, % of control at 10 µM (NCI-H322M): 106%; growth, % of control at 10 µM (SN12C): 86.5%; growth, % of control at 10 µM (SR): 51.4%; growth, % of control at 10 µM (OVCAR-5): 95.4%; growth, % of control at 10 µM (SK-MEL-28): 90.6%
